Values quoted from earlier work as cited in patent US20240335422A1, “COMPOSITION AND METHODS OF TREATMENT USING TRANSDERMAL SUPPLEMENTATION” (Xygenyx Inc., priority 2023, published 2024).

Assays:
skin [1] = conditions: single penetration enhancer
[2] = system: wide dynamic range neurons in the ventroposterolateral nucleus of the thalamus; conditions: in vivo
skin [3] = conditions: topical, concentrations 0.5-5%
skin [4] = conditions: topical, in combination with silymarin and tocopherols, test studies
[5] = not given; remark: listed apart in the source
[6] = compared to α-tocopherol taken as 1.0
[7] = even when dietary intake occurs in equal portions
[8] = in vivo

Compound: CC(C)[C@@H]1CC[C@@H](C)C[C@H]1O [Menthol]
- increase of transdermal drug uptake (factor) (skin [1]): ≥ 10

Compound: CCCCCc1cc(O)c2c(c1)OC(C)(C)C1CCC(C)=CC21 (stereo not drawn) [THC, Δ-9-tetrahydrocannabinol]
- analgesic power relative to morphine [2]: ten times more powerful than morphine

Compound: C=CCCCCCCCCC(=O)N[C@@H](Cc1ccccc1)C(=O)O [UP, Undecylenoyl phenylalanine]
- time of treatment to skin lightening effects (skin [3]): ≥ 7 days

Compound: NCCC(=O)N[C@@H](Cc1cnc[nH]1)C(=O)O [carnosine, Carnosine]
- reduction of age-related wrinkles (skin [4]): ≤ 27%

Compound: CC12CCC(CC1)C(C)(C)O2 [eucalyptol, 1,8-epoxy-p-menthane]
- increase of transdermal drug uptake (factor) (skin [1]): more than 10

Compound: C/C(=C\CO)CCC[C@H](C)CCC[C@H](C)CCCC(C)C [phytol, Phytol]
- solubility: nearly insoluble in water, but soluble in most organic solvents

Compound: Cc1c(C)c2c(c(C)c1O)CC[C@@](C)(CCC[C@H](C)CCC[C@H](C)CCCC(C)C)O2 [α-tocopherol]
- reduction of risk of coronary disease ([5]; dietary supplementation, doses up to 400 IU/day): up to 34%
- reduction of risk of developing neurodegenerative diseases (Alzheimer's Syndrome or dementia) ([5]; dietary supplementation, doses up to 400 IU/day, controlled trials): ≤ 24%
- reduction in the development of age-related cataracts ([5]; in combination with 10-20 mg β-carotene and 400-500 mg vitamin C, doses around 400-500 IU): 23%
- blood plasma concentration of F2-isoprostane ([5]; large doses of 1600-3200 IU/day): significantly lower

Compound: Cc1cc(O)c(C)c2c1O[C@](C)(CCC[C@H](C)CCC[C@H](C)CCCC(C)C)CC2 [β-tocopherol]
- relative biological activity [6]: 0.5

Compound: Cc1c(O)cc2c(c1C)O[C@](C)(CCC[C@H](C)CCC[C@H](C)CCCC(C)C)CC2 [γ-tocopherol]
- concentration in vivo relative to α-tocopherol [7]: roughly 10%
- relative biological activity [6]: 0.1

Compound: Cc1cc(O)cc2c1O[C@](C)(CCC[C@H](C)CCC[C@H](C)CCCC(C)C)CC2 [δ-tocopherol]
- relative biological activity [6]: 0.03

Compound: HGH: hormone comprising a peptide chain synthesized in the pituitary gland
- biological half-life [8]: 10-20 minutes
